Test results as given in PubChem BioAssay AID977605 (Broad Institute, 2014).
Calls of active or inactive are those of the source.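 The calls were made as follows: active = fitted curve reaches 40% activation below the top valid tested dose, in every test run; inconclusive = test runs disagree on the call; inactive = the rest, including effects opposite to the expected direction.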

Experiment: E-selectin inducers in HUVECs, dose response, imaging, HUVEC, cherry-picked samples (AID 977605);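 also: signal is the share of imaged cells scored positive for E-selectin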
Conditions: HUVEC E-selectin immunostaining, percent of TNF-alpha response over vehicle

Row | Structure (SMILES) | activation (at 19.5 µM (top of the series)) | activation (at 21 µM (top of the series))
1 | COc1ccc(S(=O)(=O)N(C)C[C@@H]2Oc3ccc(NS(=O)(=O)c4c(C)noc4C)cc3C(=O)N([C@@H](C)CO)C[C@H]2C)cc1 | -0.096% (inactive) | –
2 | C[C@H]1CN([C@@H](C)CO)C(=O)Cc2cc(NC(=O)c3ccncc3)ccc2O[C@H]1CN(C)C(=O)Nc1ccc(C(F)(F)F)cc1 | 0.212% (inactive) | –
3 | C[C@@H]1CN([C@@H](C)CO)C(=O)Cc2cc(NS(C)(=O)=O)ccc2O[C@H]1CN(C)Cc1ccncc1 | -0.007% (inactive) | –
4 | C[C@H](CO)N1C[C@H](C)[C@H](CN(C)Cc2ccncc2)Oc2c(NC(=O)Nc3ccc(F)cc3)cccc2C1=O | -0.19% (inactive) | –
5 | COc1ccc(NC(=O)N(C)C[C@H]2Oc3ccc(NC(=O)Cc4cn(C)c5ccccc45)cc3C(=O)N([C@H](C)CO)C[C@@H]2C)cc1 | – | 7.04% (inactive)
6 | CO[C@@H]1CN(C)C(=O)c2ccc(NC(=O)c3nc4ccccc4s3)cc2OC[C@@H](C)N(Cc2cncnc2)C[C@@H]1C | -0.082% (inactive) | –
7 | C=CCN(C(=O)c1csnn1)C(C(=O)NC1CCCCC1)c1ccccc1 (stereo not given) | -0.215% (inactive) | –
8 | O=C(NCc1ccc(F)cc1)c1cc(C2CCCCN2C(=O)CCCc2ccccc2)on1 (stereo not given) | -0.164% (inactive) | –
9 | C[C@@H]1CN([C@H](C)CO)C(=O)c2cccc(NC(=O)CCCCCC(=O)Nc3ccccc3N)c2O[C@H]1CN(C)C | 0.064% (inactive) | –
10 | C[C@@H]1CN([C@@H](C)CO)C(=O)Cc2cc(NS(C)(=O)=O)ccc2O[C@@H]1CN(C)S(=O)(=O)c1cn(C)cn1 | -0.013% (inactive) | –
11 | C[C@H]1CN([C@@H](C)CO)C(=O)c2cccc(NC(=O)Nc3ccc(F)cc3)c2O[C@H]1CN(C)CC1CCCCC1 | -0.099% (inactive) | –
12 | C[C@H](CO)N1C[C@H](C)[C@@H](CN(C)Cc2ccccc2)Oc2c(NC(=O)C3CC3)cccc2C1=O | -0.084% (inactive) | –
13 | C[C@@H]1CCCCO[C@@H](CN(C)C(=O)Cc2ccccc2)[C@@H](C)CN([C@H](C)CO)C(=O)c2cc(NS(=O)(=O)c3cccs3)ccc2O1 | 0.129% (inactive) | –
14 | C[C@@H]1CN([C@@H](C)CO)C(=O)Cc2cc(NC(=O)C3CC3)ccc2O[C@@H]1CN(C)C(=O)Nc1ccccc1 | 0.276% (inactive) | –
15 | COc1ccccc1NS(=O)(=O)c1c(C)[nH]c(C)c1C(=O)N1CCCC1 | 13.9% (inactive) | –
16 | Cc1noc(C)c1S(=O)(=O)N(C)C[C@H]1Oc2ccc(NC(=O)C3CC3)cc2CC(=O)N([C@@H](C)CO)C[C@@H]1C | 32.2% (inactive) | –
17 | CCCCNC(=O)N1c2ccccc2CC1C (stereo not given) | 0.083% (inactive) | –
18 | COc1ccc(OCC(O)CNC(=O)c2ccccc2)cc1 (stereo not given) | 4.38% (inactive) | –

Row | Structure (SMILES) | activation (at 19.5 µM (top of the series)) | activation (at 21 µM (top of the series))
19 | Fc1ccc(NC(=S)N2CCN(c3cccc(C(F)(F)F)c3)CC2)cc1 | -0.235% (inactive) | –
20 | Cc1ccc(CNS(=O)(=O)c2ccc(C(F)(F)F)cc2)n1C | -0.139% (inactive) | –
21 | COc1ccc(NC(=O)N(C)C[C@@H]2Oc3c(NS(=O)(=O)c4cn(C)cn4)cccc3C(=O)N([C@@H](C)CO)C[C@H]2C)cc1 | -0.199% (inactive) | –
22 | Cc1ccc(C(=O)NCC(=O)Nc2ccncc2)cc1C | -0.08% (inactive) | –
23 | C[C@@H]1CN([C@H](C)CO)C(=O)c2cccc(NC(=O)Nc3ccc4c(c3)OCO4)c2O[C@@H]1CN(C)C(=O)Nc1ccc(C(F)(F)F)cc1 | 0.256% (inactive) | –
24 | CC(C)NC(=O)Nc1ccc2c(c1)CC(=O)N([C@H](C)CO)C[C@H](C)[C@H](CN(C)Cc1ccc(Cl)c(Cl)c1)O2 | – | 0.284% (inactive)
25 | Cc1cc(C)cc(NC(=O)Nc2ccc(-n3ccc(C(F)(F)F)n3)cc2)c1 | 0.075% (inactive) | –
26 | C[C@@H]1CN([C@@H](C)CO)C(=O)Cc2cc(NC(=O)Nc3ccc(F)cc3)ccc2O[C@@H]1CN(C)S(=O)(=O)c1cn(C)cn1 | -0.041% (inactive) | –
27 | COc1ccc(OC)c(NC(=O)c2csc(Cl)c2OC)c1 | 2.39% (inactive) | –
28 | C[C@@H]1CN([C@@H](C)CO)C(=O)c2cc(C3=CCCCC3)cnc2O[C@H]1CN(C)C(=O)NC1CCCC1 | -0.267% (inactive) | –
29 | C[C@H]1CN([C@@H](C)CO)C(=O)c2cccc(NS(=O)(=O)c3cccs3)c2O[C@@H]1CN(C)Cc1ccc(C(=O)Nc2ccccc2N)cc1 | – | -0.225% (inactive)
30 | Cc1c(O)nc2ccccn2c1=O | 0.171% (inactive) | –
31 | COc1ncnc(OC)c1S(=O)(=O)NCc1ccccc1 | -0.033% (inactive) | –
32 | CCN(CC)C(=O)c1cn(-c2cccc(OC)c2)c(=O)c2ccccc12 | -0.108% (inactive) | –
33 | COc1ccc(CN(C)C[C@H]2Oc3ccc(NC(=O)Nc4c(C)noc4C)cc3C(=O)N([C@@H](C)CO)C[C@H]2C)cc1 | – | 0.014% (inactive)
34 | O=S(=O)(Nc1cccc(Oc2cnccn2)c1)c1ccc(F)cc1 | 0.221% (inactive) | –
35 | CC(C)NC(=O)Nc1ccc2c(c1)C(=O)N([C@@H](C)CO)C[C@@H](C)[C@@H](CN(C)Cc1ccc(C(F)(F)F)cc1)O2 | 0.127% (inactive) | –
